Broadly, the EC50 is the concentration at which the effect is half-maximal. Low values mean a more potent agent, high ones a less potent agent.

The first assay has as its system Aβ42. Description: In vitro cell screening assay in H4 cells expressing human APP751: Aβ42 by sandwich ELISA. Type of assay: cell-based. The following applies: Homo sapiens, compounds 0.003-10 μM, incubated overnight (16-18 h), sandwich ELISA of supernatant. The gist of the method:
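H4 neuroglioma cells stably expressing wild-type human APP751, switched to Pro293 medium and treated with compounds (0.003-10 μM, 0.33% DMSO) for 16-18 h at 37 °C. Supernatant Aβ42 quantified by sandwich ELISA (C-terminal capture, 4G8-HRP detection, A450); EC50 by sigmoidal fit normalized to DMSO and DAPT controls.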
`COc1nc(C2=NOCC(c3oc(C)nc3C)N2)ccc1-n1cnc(C)c1` (single isomer, unassigned; (-)) [Example 161A, (−)-5-(2,4-dimethyloxazol-5-yl)-3-(6-methoxy-5-(4-methyl-1H-imidazol-1-yl)pyridin-2-yl)-5,6-dihydro-4H-1,2,4-oxadiazine] returned a concentration giving a half-maximal response (EC50) above 3000 nM.
For `COc1nc(C2=NOCC(c3cnn(C)c3)N2)ccc1-n1cnc(C)c1` (single isomer, unassigned; (-)) [Example 166A, (−)-3-(6-methoxy-5-(4-methyl-1H-imidazol-1-yl)pyridin-2-yl)-5-(1-methyl-1H-pyrazol-4-yl)-5,6-dihydro-4H-1,2,4-oxadiazine], the 50% effective concentration (EC50) is above 3000 nM.

The assay is the same for the next values; noted with them: compounds 0.003-10 μM, incubated overnight (16-18 h), sandwich ELISA of supernatant.
Take `COc1nc(C2=NOCC(CC(C)C)N2)ccc1-n1cnc(C)c1` (single isomer, unassigned; (-)) [Example 154B, (−)-5-isobutyl-3-(6-methoxy-5-(4-methyl-1H-imidazol-1-yl)pyridin-2-yl)-5,6-dihydro-4H-1,2,4-oxadiazine]: the response was half-maximal at 199 nM (EC50).
Still for that read-out and setting: then `COc1nc(C2=NOCC(c3cscn3)N2)ccc1-n1cnc(C)c1` (single isomer, unassigned; (-)) [Example 156B, (−)-3-(6-methoxy-5-(4-methyl-1H-imidazol-1-yl)pyridin-2-yl)-5-(thiazol-4-yl)-5,6-dihydro-4H-1,2,4-oxadiazine], with above 3000 nM; and `COc1nc(C2=NOCC(C3CCC3)N2)ccc1-n1cnc(C)c1` (single isomer, unassigned; (-)) [Example 163B, (−)-5-cyclobutyl-3-(6-methoxy-5-(4-methyl-1H-imidazol-1-yl)pyridin-2-yl)-5,6-dihydro-4H-1,2,4-oxadiazine], with 368 nM.
As for `COc1nc(C2=NOCC(c3ccccn3)N2)ccc1-n1cnc(C)c1` (single isomer, unassigned; (-)) [Example 168B, (−)-3-(6-methoxy-5-(4-methyl-1H-imidazol-1-yl)pyridin-2-yl)-5-(pyridin-2-yl)-5,6-dihydro-4H-1,2,4-oxadiazine], the half-maximal effective concentration (EC50) was above 3000 nM.
Regarding `COc1nc(C2=NOCC(C3CCCC3)N2)ccc1-n1cnc(C)c1` (single isomer, unassigned; (-)) [Example 171B, (−)-5-cyclopentyl-3-(6-methoxy-5-(4-methyl-1H-imidazol-1-yl)pyridin-2-yl)-5,6-dihydro-4H-1,2,4-oxadiazine], a half-maximal effect (EC50) was put at 107 nM.
On the same count and under the same terms, then `COc1nc(C2=NOCC(C3CCS(=O)(=O)CC3)N2)ccc1-n1cnc(C)c1` (single isomer, unassigned; (-)) [Example 177B, (−)-4-(3-(6-methoxy-5-(4-methyl-1H-imidazol-1-yl)pyridin-2-yl)-5,6-dihydro-4H-1,2,4-oxadiazin-5-yl) tetrahydro-2H-thiopyran 1,1-dioxide], with above 3000 nM.
With `COc1nc(C2=NOCC(C3CC(F)(F)C3)N2)ccc1-n1cnc(C)c1` (single isomer, unassigned; (-)) [Example 180A, (−)-5-(3,3-difluorocyclobutyl)-3-(6-methoxy-5-(4-methyl-1H-imidazol-1-yl)pyridin-2-yl)-5,6-dihydro-4H-1,2,4-oxadiazine], the EC50 is above 3000 nM.
In the case of `COc1nc(C2=NOCC(c3ccc4ncsc4c3)N2)ccc1-n1cnc(C)c1` (single isomer, unassigned; (-)) [Example 183A, (−)-5-(benzo [d]thiazol-6-yl)-3-(6-methoxy-5-(4-methyl-1H-imidazol-1-yl)pyridin-2-yl)-5,6-dihydro-4H-1,2,4-oxadiazine], the EC50 worked out at 1760 nM.
The compound `COc1nc(C2=NOCC(c3cc4ccccc4o3)N2)ccc1-n1cnc(C)c1` (single isomer, unassigned; (-)) [Example 186A, (−)-5-(benzofuran-2-yl)-3-(6-methoxy-5-(4-methyl-1H-imidazol-1-yl)pyridin-2-yl)-5,6-dihydro-4H-1,2,4-oxadiazine] showed an EC50 of 1170 nM.
In turn, `COc1nc(C2=NOCC(c3cn(C)c4ccccc34)N2)ccc1-n1cnc(C)c1` (single isomer, unassigned; (-)) [Example 189B, (−)-3-(6-methoxy-5-(4-methyl-1H-imidazol-1-yl)pyridin-2-yl)-5-(1-methyl-1H-indol-3-yl)-5,6-dihydro-4H-1,2,4-oxadiazine] returned an EC50 of 252 nM.
In turn, `COc1nc(C2=NOCC(c3cn(C)c4ccc(F)cc34)N2)ccc1-n1cnc(C)c1` (single isomer, unassigned; (-)) [Example 190A, (−)-5-(5-fluoro-1-methyl-1H-indol-3-yl)-3-(6-methoxy-5-(4-methyl-1H-imidazol-1-yl)pyridin-2-yl)-5,6-dihydro-4H-1,2,4-oxadiazine] registered an EC50 of 287 nM. The EC50 values of the last two compounds are within 1.5-fold of each other.
Still for that read-out and setting: then `COc1nc(C2=NOCC(c3cn(C)c4cccc(F)c34)N2)ccc1-n1cnc(C)c1` (single isomer, unassigned; (-)) [Example 191B, (−)-5-(4-fluoro-1-methyl-1H-indol-3-yl)-3-(6-methoxy-5-(4-methyl-1H-imidazol-1-yl)pyridin-2-yl)-5,6-dihydro-4H-1,2,4-oxadiazine], with 83.2 nM; and `COc1nc(C2=NOCC(c3cn(C)c4cc(F)ccc34)N2)ccc1-n1cnc(C)c1` (single isomer, unassigned; (-)) [Example 192A, (−)-5-(6-fluoro-1-methyl-1H-indol-3-yl)-3-(6-methoxy-5-(4-methyl-1H-imidazol-1-yl)pyridin-2-yl)-5,6-dihydro-4H-1,2,4-oxadiazine], with 170 nM; and `COc1nc(C2=NOCC(c3cn(C)c4ccc(Cl)cc34)N2)ccc1-n1cnc(C)c1` (single isomer, unassigned; (-)) [Example 193A, (−)-5-(5-chloro-1-methyl-1H-indol-3-yl)-3-(6-methoxy-5-(4-methyl-1H-imidazol-1-yl)pyridin-2-yl)-5,6-dihydro-4H-1,2,4-oxadiazine], with 71 nM.
On the same count and under the same terms, under `COc1nc(C2=NOCC(c3cn(C)c4cc(Cl)ccc34)N2)ccc1-n1cnc(C)c1` (single isomer, unassigned; (-)) [Example 194B, (−)-5-(6-chloro-1-methyl-1H-indol-3-yl)-3-(6-methoxy-5-(4-methyl-1H-imidazol-1-yl)pyridin-2-yl)-5,6-dihydro-4H-1,2,4-oxadiazine] stands 147 nM; under `COc1nc(C2=NOCC(c3cn(C)c4ncccc34)N2)ccc1-n1cnc(C)c1` (single isomer, unassigned; (-)) [Example 195A, (−)-3-(6-methoxy-5-(4-methyl-1H-imidazol-1-yl)pyridin-2-yl)-5-(1-methyl-1H-pyrrolo [2,3-b]pyridin-3-yl)-5,6-dihydro-4H-1,2,4-oxadiazine], 2110 nM.
Still for that read-out and setting: then `COc1nc(C2=NOCC(c3cn(C(C)C)c4cccc(F)c34)N2)ccc1-n1cnc(C)c1` (single isomer, unassigned; (-)) [Example 196B, (−)-5-(4-fluoro-1-isopropyl-1H-indol-3-yl)-3-(6-methoxy-5-(4-methyl-1H-imidazol-1-yl)pyridin-2-yl)-5,6-dihydro-4H-1,2,4-oxadiazine], with 220 nM; and `COc1nc(C2=NOCC(c3cn(C)c4cc(C(F)(F)F)ccc34)N2)ccc1-n1cnc(C)c1` (single isomer, unassigned; (-)) [Example 197B, (−)-3-(6-methoxy-5-(4-methyl-1H-imidazol-1-yl)pyridin-2-yl)-5-(1-methyl-6-(trifluoromethyl)-1H-indol-3-yl)-5,6-dihydro-4H-1,2,4-oxadiazine], with 90.5 nM.
With `COc1nc(C2=NOCC(c3cn(C)c4ccccc34)N2C)ccc1-n1cnc(C)c1` (single isomer, unassigned; (-)) [Example 200B, (−)-3-(6-methoxy-5-(4-methyl-1H-imidazol-1-yl)pyridin-2-yl)-4-methyl-5-(1-methyl-1H-indol-3-yl)-5,6-dihydro-4H-1,2,4-oxadiazine], a half-maximal response (EC50) required 1290 nM. Compared with the last compound, the EC50 is about 14-fold higher.
Same read-out and setting: under `COc1nc(C2=NOCC(c3nc4ccccc4o3)N2)ccc1-n1cnc(C)c1` (single isomer, unassigned; (-)) [Example 203A, (−)-2-(3-(6-methoxy-5-(4-methyl-1H-imidazol-1-yl)pyridin-2-yl)-5,6-dihydro-4H-1,2,4-oxadiazin-5-yl)benzo[d]oxazole] stands 2320 nM.
Still for that read-out and setting: under `COc1nc(C2=NOCC(c3cc4ccccc4n3C)N2)ccc1-n1cnc(C)c1` (single isomer, unassigned; (-)) [Example 205A, (−)-3-(6-methoxy-5-(4-methyl-1H-imidazol-1-yl)pyridin-2-yl)-5-(1-methyl-1H-indol-2-yl)-5,6-dihydro-4H-1,2,4-oxadiazine] stands 1730 nM; under `COc1nc(C2=NOCC(c3cn(C)c4ncc(C(F)(F)F)cc34)N2)ccc1-n1cnc(C)c1` (single isomer, unassigned; (-)) [Example 206A, (−)-3-(6-methoxy-5-(4-methyl-1H-imidazol-1-yl)pyridin-2-yl)-5-(1-methyl-5-(trifluoromethyl)-1H-pyrrolo [2,3-b]pyridin-3-yl)-5,6-dihydro-4H-1,2,4-oxadiazine], 800 nM.
As to `COc1nc(C2=NOCC(c3nc4ccccc4s3)N2)ccc1-n1cnc(C)c1` (single isomer, unassigned; (-)) [Example 208A, (−)-5-(benzo[d]thiazol-2-yl)-3-(6-methoxy-5-(4-methyl-1H-imidazol-1-yl)pyridin-2-yl)-5,6-dihydro-4H-1,2,4-oxadiazine], the EC50 is above 3000 nM.
On the same count and under the same terms, then `COc1cc(C2=NOCC(c3nc4cccc(C)c4o3)N2C)ccc1-n1cnc(C)c1` (single isomer, unassigned; (-)) [Example 212B, (−)-2-(3-(3-methoxy-4-(4-methyl-1H-imidazol-1-yl)phenyl)-4-methyl-5,6-dihydro-4H-1,2,4-oxadiazin-5-yl)-7-methylbenzo[d]oxazole], with above 3000 nM.

Source of the values: patent US9802927B2, “Oxadiazine compounds and methods of use thereof” (Denali Therapeutics, Inc., priority 2015, dated 2017).
